# Marks after values point to notes of the source that are not given here.
# Tested on: rats with pressure overload
# Assay: Arterial pressure and heart rate in rats with pressure overload
# Assay type: in vivo, rat
# Source text: FIGS. 9A–9C Effects of IFN-γ on systolic arterial pressure, mean arterial pressure, and diastolic arterial pressure in rats with pressure overload. The number in parenthesis is the number of animals in each group. **P<0.01, compared to the sham group. Sham: sham-operated rats; Banded: aortic-banded rats; IFN: IFN-γ, SAP: systolic arterial pressure; MAP: mean arterial pressure; DAP: diastolic arterial pressure.
# Experimental protocol in rats with pressure overload The rats with aortic banding randomly received subcutaneous injection of IFN-γ at 0.08 mg/k twice a day for one day before surgery and for 14 days after surgery. Sham animals were not treated. Thirteen days after treatment, a catheter was implanted into the right carotid artery under anesthesia as indicated above. One day after implantation, arterial pressure and HR were measured in conscious rats. The heart and other organs including the liver, kidney, and spleen were removed, weighed, and fixed in 10% buffered formalin for pathological studies. The left ventricle was quickly dissected and frozen with liquid nitrogen in some animals and stored at −80° C. for assessment of gene expression.
substance,measurement,setting,value
"IFN-γ: recombinant mouse IFN-γ (Genentech, Inc., South San Francisco, Calif., or Genzyme, Cambridge, Mass.)","Incremental increase in arterial pressure (MAP, systolic, diastolic) in banded rats, IFN-γ vs vehicle",FIG. 9,not different
same,"HR, heart rate","pressure overload, conscious rats, IFN-γ 0.08 mg/kg s.c. twice a day, mean ± SEM",418 ± 19* bpm

# From patent publication US6989364B1, “Methods for treating cardiac hypertrophy by administering IFN-γ” (Genentech, Inc., priority 1998, dated 2006)
